Among the test systems are A498 renal; CCRF-CEM leukemia; DU-145 prostate; HCT-15 colon; HL-60(TB) leukemia; HOP-62 NSCLC; HS 578T breast; MCF7 breast; RPMI-8226 leukemia; UO-31 renal.
Holding throughout (assay): growth of human tumour cells (NCI), 48 h

The structures appear in SMILES notation. Several values for one entry are separate records, joined by “and”; a condition that tells them apart may be missing. Equal values may be shown once.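 These data come from cells grown in 96-well plates and exposed to compound for 48 hours at five concentrations. GI50: concentration for 50% inhibition of growth. TGI denotes the concentration required for complete inhibition of growth.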

In the case of `COC(=O)c1ccc2c(C(=Nc3ccc(N(C)C(=O)CN4CCN(C)CC4)cc3)c3ccccc3)c(O)[nH]c2c1`, the GI50 is 0.613 µM and 0.604 µM with A498 renal; 2.56 µM and 2.81 µM with CCRF-CEM leukemia; 3.22 µM and 6.14 µM with DU-145 prostate; 2.22 µM and 5.45 µM with HCT-15 colon; 9.41 µM and 9.59 µM with HL-60(TB) leukemia; 1.36 µM and 2.32 µM in the test on HOP-62 NSCLC. Also, the GI50 in the test with HS 578T breast was 0.546 µM and 0.648 µM; with MCF7 breast, 1.55 µM and 4.48 µM; with RPMI-8226 leukemia, 2.73 µM and 5.97 µM; with UO-31 renal, 1.2 µM and 0.739 µM. The TGI in the test on A498 renal was 5.52 µM and 10.1 µM; in the test on CCRF-CEM leukemia, 16.7 µM and > 100 µM; with DU-145 prostate it was 14.9 µM and > 100 µM; with HCT-15 colon, over 100 µM; in the test on HL-60(TB) leukemia, 32.3 µM and 32.1 µM; in the test on HOP-62 NSCLC it was 12.2 µM and > 100 µM. Further, the TGI with MCF7 breast was 13.6 µM and > 100 µM; in the test with RPMI-8226 leukemia, 9.86 µM and 20.8 µM; with UO-31 renal, 5.76 µM and > 34 µM.
Regarding `COC(=O)C1(C)CCCC2(C)c3cc(OC)ccc3C(=O)C(Br)C12` (centres undefined), the TGI in the test with A498 renal is over 10 µM; in the test on CCRF-CEM leukemia, 6.59 µM; with DU-145 prostate, over 10 µM; in the test on HCT-15 colon, over 10 µM; in the test on HL-60(TB) leukemia it was 4.2 µM; with HOP-62 NSCLC, over 10 µM. Moreover, the TGI was over 10 µM with HS 578T breast, over 10 µM in the test with MCF7 breast, 6.53 µM in the test on RPMI-8226 leukemia and 3.28 µM in the test with UO-31 renal.
Take `CC/C(=N/N=C(N)N)c1ccc(NC(=O)Nc2ccc(/C(CC)=N/N=C(N)N)cc2)cc1`: the GI50 is 36.3 µM in the test with A498 renal; 5.8 µM with CCRF-CEM leukemia; 5.02 µM with DU-145 prostate; 11.9 µM in the test on HCT-15 colon; 2.85 µM with HL-60(TB) leukemia; 10.7 µM with HOP-62 NSCLC. In addition, the GI50 in the test on HS 578T breast was 22.6 µM; in the test with MCF7 breast it was 3.13 µM; in the test with RPMI-8226 leukemia it was 1.62 µM; in the test on UO-31 renal, 12.4 µM. Besides, the TGI with A498 renal is over 100 µM; with CCRF-CEM leukemia, 28.7 µM; with DU-145 prostate, 30.5 µM; in the test on HCT-15 colon it was 33.2 µM; in the test on HL-60(TB) leukemia, 21.8 µM; in the test with HOP-62 NSCLC, 42.6 µM. The TGI in the test on HS 578T breast is over 100 µM; in the test with MCF7 breast, over 100 µM; in the test on RPMI-8226 leukemia, 8.85 µM; with UO-31 renal it was 27.2 µM.
For `Fc1ccc(-c2c(-c3ccncc3)[nH]c3nccnc23)cc1`, the GI50 in the test on A498 renal is 4.76 µM; with CCRF-CEM leukemia, 24.6 µM; in the test on DU-145 prostate it was 7.32 µM; with HCT-15 colon it was 8.28 µM; in the test on HL-60(TB) leukemia, 16.3 µM; with HOP-62 NSCLC it was over 15.3 µM. In addition, the GI50 in the test on HS 578T breast is 8.03 µM; in the test with MCF7 breast it was 7.39 µM; in the test on RPMI-8226 leukemia it was over 25 µM; in the test on UO-31 renal, 3.43 µM. In addition, the TGI in the test with A498 renal was over 23.2 µM; in the test with CCRF-CEM leukemia, over 25 µM; with DU-145 prostate, over 22 µM; with HCT-15 colon it was over 25 µM; in the test with HL-60(TB) leukemia, over 25 µM; in the test on HOP-62 NSCLC it was over 25 µM. Besides, the TGI in the test with HS 578T breast, in the test on MCF7 breast, in the test on RPMI-8226 leukemia and in the test with UO-31 renal was over 25 µM throughout.
`Oc1cccc(-c2nc(-c3ccccc3)[nH]c2-c2ccncc2)c1`: the GI50 with A498 renal was 6.07 µM; in the test with CCRF-CEM leukemia, 17.1 µM; in the test with DU-145 prostate, 16.3 µM; with HCT-15 colon, 7.36 µM; with HL-60(TB) leukemia, 7.77 µM; with HOP-62 NSCLC, 16.8 µM. The GI50 in the test on HS 578T breast was 10.2 µM; in the test with MCF7 breast it was 12.8 µM; in the test with RPMI-8226 leukemia, 13.5 µM; in the test with UO-31 renal, 10.1 µM. Also, the TGI with A498 renal was 17.4 µM; in the test on CCRF-CEM leukemia it was over 25 µM; in the test on DU-145 prostate, over 25 µM; with HCT-15 colon, over 20.3 µM; in the test on HL-60(TB) leukemia, 19.4 µM; with HOP-62 NSCLC, over 25 µM. Moreover, the TGI in the test on HS 578T breast, in the test on MCF7 breast, with RPMI-8226 leukemia and in the test on UO-31 renal was over 25 µM throughout.
Regarding `Cc1cc2c(cc1Cl)SC(C(=O)c1ccc(Cl)c(Cl)c1)NS2(=O)=O` (centres undefined), the GI50 with A498 renal is 70.5 µM; in the test on CCRF-CEM leukemia, 27.9 µM; in the test with DU-145 prostate it was 32.8 µM; with HCT-15 colon, 28.7 µM; with HL-60(TB) leukemia, 39.8 µM; in the test on HOP-62 NSCLC, 39.3 µM. Also, the GI50 is 70 µM in the test on HS 578T breast, 21.2 µM in the test on MCF7 breast, 24.6 µM with RPMI-8226 leukemia and 42.2 µM with UO-31 renal. The TGI was over 100 µM in the test with A498 renal; 61.2 µM in the test with CCRF-CEM leukemia; 87.6 µM in the test with DU-145 prostate; 76.1 µM with HCT-15 colon; 80.6 µM with HL-60(TB) leukemia; over 100 µM with HOP-62 NSCLC. In addition, the TGI is over 100 µM in the test with HS 578T breast, 47.3 µM in the test on MCF7 breast, 56 µM in the test with RPMI-8226 leukemia and over 100 µM in the test on UO-31 renal.
`N=C1C(c2nc3ccccc3s2)=C(O)CN1c1cc(Cl)cc(Cl)c1`: the GI50 in the test on A498 renal is over 100 µM; in the test with CCRF-CEM leukemia it was over 100 µM; with DU-145 prostate it was over 100 µM; in the test on HCT-15 colon, 0.705 µM; with HL-60(TB) leukemia, over 100 µM; with HOP-62 NSCLC, 46.7 µM. In addition, the GI50 with HS 578T breast was 16.1 µM; in the test with MCF7 breast it was over 100 µM; with RPMI-8226 leukemia, over 100 µM; in the test on UO-31 renal it was 91.3 µM. The TGI with A498 renal, with CCRF-CEM leukemia, in the test with DU-145 prostate, with HCT-15 colon, in the test with HL-60(TB) leukemia and in the test with HOP-62 NSCLC was over 100 µM each time. Further, the TGI in the test with HS 578T breast is 64.8 µM; in the test on MCF7 breast, over 100 µM; with RPMI-8226 leukemia, over 100 µM; in the test with UO-31 renal, over 100 µM.
Consider `CCN1C(=O)N(CC)C2C1NN=c1s/c(=C\c3ccc(OC)cc3)c(=O)n12` (centres undefined), for which the GI50 was 0.0222 µM in the test on A498 renal; 0.304 µM in the test on CCRF-CEM leukemia; 0.323 µM in the test with DU-145 prostate; 0.104 µM with HCT-15 colon; 0.174 µM with HL-60(TB) leukemia; 0.381 µM in the test with HOP-62 NSCLC. Further, the GI50 is 0.219 µM with HS 578T breast, 0.0465 µM with MCF7 breast, 0.353 µM in the test with RPMI-8226 leukemia and 0.653 µM in the test with UO-31 renal. Moreover, the TGI in the test on A498 renal was 0.0924 µM; with CCRF-CEM leukemia, over 100 µM; with DU-145 prostate it was over 29.8 µM; with HCT-15 colon it was over 100 µM; with HL-60(TB) leukemia it was 0.477 µM; with HOP-62 NSCLC it was over 59.4 µM. In addition, the TGI in the test with HS 578T breast, in the test on MCF7 breast, with RPMI-8226 leukemia and with UO-31 renal was over 100 µM in each case.

Source of the values: PubChem BioAssay (NCI).
